Measurements reported in publication PMC6328429, “Synthesis of a benzoxazinthione derivative of tanaproget and pharmacological evaluation for PET imaging of PR expression” (EJNMMI Radiopharmacy and Chemistry, 2019).

Columns and labels:
[1] = In vitro non-radioactive metabolite analysis and clearance in MLM; assay type: in vitro ADME, mouse
Experimental: (§1) Microsomal incubations were performed using a Hamilton Microlab Star liquid handling workstation (Hamilton Robotics, Bonaduz, Switzerland). Test compound 2 (final concentration 1 or 10 μM, 1% DMSO) was pre-incubated at 37 °C for 10 min in MLM or HLM (final concentration 1 mg/ml prepared in 10 mM PBS). Reactions were initiated by the addition of NADPH (final concentration 1 mM). Aliquots were removed from each incubation and quenched in 3 volumes of ice-cold MeOH containing internal standard olomoucine (500 nM in MeOH) at − 1, 0, 5, 15, 30 and 60 min. Incubations were conducted in singlicate. […] Terminated incubations were centrifuged at 3700 rpm at 4 °C for 30 min and supernatant taken for analysis. Microsomal incubations were analysed by liquid chromatography-tandem mass spectrometry (LC-MS/MS). This consisted of a Dionex Ultimate 3000 UHPLC system coupled to a ThermoScientific Q Exactive Plus orbitrap mass spectrometer (Thermo Fisher Scientific Inc., Waltham, USA). Chromatographic separation was achieved using an Acquity UPLC HSS T3 column (1.8 μm, 100 × 2.1 mm) (Waters, Elstree, UK) at 50 °C and a binary mobile phase gradient at a flow rate of 0.4 ml/min. Initial LC conditions comprised 10% formic acid (0.1%) in water (A), 90% methanol (B). This was ramped to […] at 12 min. Sample analysis was by positive ion electrospray ionization. The capillary voltage was 3.5 kV. Full MS/dd-MS^2 (full MS scan followed by data dependent MS/MS) and Full MS/AIF (full MS scan followed by all ion fragmentation) workflows were used in combination. Full MS was performed at a resolution of 70,000, AGC target 1 e^6; dd-MS2 at a resolution of 17,5000, AGC target 1 e^5. LC-MS response (peak area of the analyte/peak area of internal standard) was fitted to a nonlinear single exponential model using software GraphPad Prism software (v6.07, GraphPad Software, Inc., La Jolla, USA). Elimination rate constant (k) was determined and intrinsic clearance, CLint, was calculated as CLint = (V.k)/mg protein where V is the incubation volume (μl) and mg protein is the mg microsomal protein in the incubation. Identification of metabolites in microsomal incubations and elucidation of their structures was undertaken with Compound Discoverer software (v2.0.0.303, Thermo Fisher Scientific Inc., Waltham, USA).

[2] = In vitro non-radioactive metabolite analysis and clearance in HLM; assay type: in vitro ADME, human
Experimental: as §1

[3] = molecular target: T1, progesterone receptor (PR) (Homo sapiens, UniProt P06401); experiment: T47D alkaline phosphatase (AP) potency assay; assay type: cell-based; settings: for EC50 / T47D alkaline phosphatase assay EC50: agonist response, 48 h incubation; for EC50 / T47D alkaline phosphatase assay EC50 / IC50: average of at least n = 3 ± SD; for IC50: inhibition of progesterone
T1 construct: endogenous in cells; host or cells: T47D breast carcinoma cells
T1 sequence (P06401 1-933): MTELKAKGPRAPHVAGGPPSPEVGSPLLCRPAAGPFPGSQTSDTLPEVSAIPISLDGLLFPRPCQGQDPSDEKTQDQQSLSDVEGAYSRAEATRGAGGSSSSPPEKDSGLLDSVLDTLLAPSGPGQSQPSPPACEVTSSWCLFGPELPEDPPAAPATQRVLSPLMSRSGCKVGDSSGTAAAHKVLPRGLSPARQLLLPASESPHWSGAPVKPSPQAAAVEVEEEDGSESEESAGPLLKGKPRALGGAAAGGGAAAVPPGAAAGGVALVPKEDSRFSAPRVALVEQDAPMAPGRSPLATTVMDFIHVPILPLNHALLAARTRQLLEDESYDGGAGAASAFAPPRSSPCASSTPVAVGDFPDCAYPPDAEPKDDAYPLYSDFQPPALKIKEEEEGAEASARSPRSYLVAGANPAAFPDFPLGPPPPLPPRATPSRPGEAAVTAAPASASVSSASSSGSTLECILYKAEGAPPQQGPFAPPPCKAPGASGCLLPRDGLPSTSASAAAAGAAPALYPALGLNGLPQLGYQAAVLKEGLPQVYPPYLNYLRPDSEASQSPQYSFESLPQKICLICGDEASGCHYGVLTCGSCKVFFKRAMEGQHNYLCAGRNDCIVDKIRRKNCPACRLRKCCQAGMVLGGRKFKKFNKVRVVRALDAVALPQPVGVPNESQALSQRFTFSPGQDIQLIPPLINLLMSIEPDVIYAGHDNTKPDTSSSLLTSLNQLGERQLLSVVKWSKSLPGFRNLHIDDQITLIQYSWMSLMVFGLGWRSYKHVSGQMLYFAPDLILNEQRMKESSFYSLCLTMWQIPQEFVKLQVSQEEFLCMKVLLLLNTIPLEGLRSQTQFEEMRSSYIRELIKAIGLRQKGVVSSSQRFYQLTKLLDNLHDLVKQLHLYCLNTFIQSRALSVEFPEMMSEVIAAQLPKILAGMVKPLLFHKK
Experimental: The method described by Di Lorenzo et al was followed with minor adaptation (Di Lorenzo et al., [1991]). In brief, T47D breast carcinoma cells were seeded in 96-well plates at 50,000 cell/well in RPMI medium supplemented with 10% FBS. After overnight culture, the medium was changed to RPMI phenol red free containing 2% charcoal-stripped FBS. After 24 h, the cells were treated with progesterone (Sigma Aldrich, Gillingham, UK) or the library compounds. Progesterone and the test compounds were dissolved in DMSO (100%) and diluted into treatment medium to give a final DMSO (v/v) concentration of 0.1%. After incubation (48 h) the treatment was finalised by twice washing the plates with PBS. Cells were lysed by two freeze-thaw cycles (− 80 °C). Cellular alkaline phosphatase activity was determined by adding Femto ELISA-AP substrate (200 μL) and optical density measurements taken at 5 and 10 min intervals at a wavelength of 405 nm. Data was interpreted using Graphpad Prism (GraphPad, CA, USA) using the model: dose-response simulation/inhibition, log(agonist/inhibition) vs. response – variable slope (four parameters). For compounds where EC50 > 10,000, an antagonist profile was assumed and the experiment was repeated with the inclusion of progesterone (3 mM) with the library compound. Data shown in the supporting information (Additional file 1: Figure S32).

| SMILES | EC50 [3] | T47D alkaline phosphatase assay EC50 [3] | IC50 [3] | also measured |
| --- | --- | --- | --- | --- |
| CC1(C)OC(=O)Nc2ccc(-c3cccnc3F)cc21 [Compound 1, 6-(2-fluoropyridin-3-yl)-4,4-dimethyl-1H-benzo[d][1,3]oxazin-2(4H)-one] | > 10000 nM | did not induce an agonist response | 844.8 ± 0.23 nM | Clearance (CLint) in MLM ([1]; MLM 1 mg/ml, NADPH 1 mM, 37 °C): comparable clearance; Metabolite identification by mass spectrometry in MLM ([1]; MLM incubation, LC-MS/MS): defluorinated species; Clearance (CLint) in HLM ([2]; HLM 1 mg/ml, NADPH 1 mM, 37 °C): comparable clearance; Metabolite identification by mass spectrometry in HLM ([2]; HLM incubation, LC-MS/MS): defluorinated species |
| CC1(C)OC(=S)Nc2ccc(-c3ccc(F)nc3)cc21 [Compound 4, 6-(6-fluoropyridin-3-yl)-4,4-dimethyl-1H-benzo[d][1,3]oxazine-2(4H)-thione] | 3674 ± 0.08 nM |  |  |  |
| Cn1c(C#N)ccc1-c1ccc2c(c1)C(C)(C)OC(=S)N2 [TNP, Tanaproget] | 0.5 nM |  |  |  |

The next lines start with results.

| EC50 [3] | T47D alkaline phosphatase assay EC50 [3] | IC50 [3] | SMILES | also measured |
| --- | --- | --- | --- | --- |
| > 10000 nM | did not induce an agonist response | 795 ± 0.25 nM | CC1(C)OC(=O)Nc2ccc(-c3ccc(F)nc3)cc21 [Compound 3, 6-(6-fluoropyridin-3-yl)-4,4-dimethyl-1H-benzo[d][1,3]oxazin-2(4H)-one] |  |
| 2294 ± 0.29 nM |  |  | CC1(C)OC(=O)Nc2ccc(-c3ccc(F)c(Cl)c3)cc21 [Compound 5, 6-(3-chloro-4-fluorophenyl)-4,4-dimethyl-1H-benzo[d][1,3]oxazin-2(4H)-one] |  |
| 432.5 ± 0.24 nM |  |  | CC1(C)OC(=S)Nc2ccc(-c3ccc(F)c(Cl)c3)cc21 [Compound 6, 6-(3-chloro-4-fluorophenyl)-4,4-dimethyl-1H-benzo[d][1,3]oxazine-2(4H)-thione] | fold more potent (EC50) than oxocarbamate derivative 5 ([3]; compound 6 versus 5): ~5 fold |
